Assay results reported in the NIST ThermoML archive (doi:10.1016/j.tca.2004.11.034).
Numbers after ± are expanded uncertainties.

Assays:
[1] = 101.33 kPa, Liquid; for speed of sound: Anton Paar DSA 48; for mass density: Vibrating tube method
[2] = xn = mol fraction of the nth substance listed; conditions: 101.33 kPa, Liquid; for speed of sound: Anton Paar DSA 48; for mass density: Vibrating tube method
[3] = excess molar enthalpy (molar enthalpy of mixing); xn = mol fraction of the nth substance listed; conditions: 298.15 K, 101.33 kPa, Liquid, Flow calorimetry

CC(C)CCl [1-chloro-2-methylpropane]
[1]
Conditions | mass density [kg/m3] | speed of sound [m/s]
298.15 K | 870.89 ± 0.44 | 1079.2 ± 1.4
313.15 K | 853.56 ± 0.43 | –
333.15 K | – | 1016.3 ± 1.4

CC(C)CCl [1-chloro-2-methylpropane] + CC1CCCO1
[2]
Conditions | mass density, 298.15 K [kg/m3] | mass density, 313.15 K [kg/m3] | speed of sound, 298.15 K [m/s] | speed of sound, 313.15 K [m/s]
x2 = 0.0515 | 870.05 ± 0.45 | – | 1085.4 ± 1.4 | –
x2 = 0.0553 | – | 852.78 ± 0.45 | – | 1023 ± 1.4
x2 = 0.1006 | 869.23 ± 0.45 | – | 1091.3 ± 1.4 | –
x2 = 0.1014 | – | 852.08 ± 0.45 | – | 1028.6 ± 1.4
x2 = 0.1992 | – | 850.48 ± 0.44 | – | 1040.5 ± 1.4
x2 = 0.2026 | 867.39 ± 0.45 | – | 1103.8 ± 1.4 | –
x2 = 0.3 | – | 848.74 ± 0.44 | – | 1052.7 ± 1.4
x2 = 0.3059 | 865.41 ± 0.45 | – | 1116.6 ± 1.4 | –
x2 = 0.4062 | 863.41 ± 0.45 | – | 1129.1 ± 1.4 | –
x2 = 0.4072 | – | 846.78 ± 0.44 | – | 1065.7 ± 1.4
x2 = 0.5015 | – | 844.98 ± 0.44 | – | 1077 ± 1.4
x2 = 0.505 | 861.34 ± 0.45 | – | 1141.4 ± 1.4 | –
x2 = 0.6022 | 859.23 ± 0.45 | – | 1153.5 ± 1.4 | –
x2 = 0.605 | – | 842.9 ± 0.44 | – | 1089.3 ± 1.4
x2 = 0.7022 | – | 840.83 ± 0.44 | – | 1100.8 ± 1.4
x2 = 0.7035 | 856.92 ± 0.45 | – | 1166.1 ± 1.4 | –
x2 = 0.8 | – | 838.61 ± 0.44 | – | 1112.4 ± 1.4
x2 = 0.8012 | 854.57 ± 0.45 | – | 1178.2 ± 1.4 | –
x2 = 0.8967 | – | 836.35 ± 0.44 | – | 1123.8 ± 1.4
x2 = 0.9099 | 851.75 ± 0.45 | – | 1191.6 ± 1.4 | –
x2 = 0.9491 | – | 835.09 ± 0.44 | – | 1130 ± 1.4
x2 = 0.9492 | 850.66 ± 0.45 | – | 1196.4 ± 1.4 | –

[3]
Conditions | excess molar enthalpy [kcal/mol]
x2 = 0.06 | -0.00789 ± 0.000239
x2 = 0.109 | -0.016 ± 0.000478
x2 = 0.21 | -0.0315 ± 0.000478
x2 = 0.309 | -0.0416 ± 0.000717
x2 = 0.411 | -0.0504 ± 0.000717
x2 = 0.511 | -0.0535 ± 0.000717
x2 = 0.609 | -0.0526 ± 0.000717
x2 = 0.707 | -0.0468 ± 0.000717
x2 = 0.806 | -0.0361 ± 0.000478
x2 = 0.904 | -0.0201 ± 0.000478
x2 = 0.954 | -0.0103 ± 0.000239

CCCCCl [1-chlorobutane]
[1]
Conditions | mass density [kg/m3] | speed of sound [m/s]
298.15 K | 880.69 ± 0.45 | 1118.8 ± 1.4
313.15 K | 863.86 ± 0.45 | –
333.15 K | – | 1057.1 ± 1.4

CC(C)(C)Cl [2-chloro-2-methylpropane]
[1]
Conditions | mass density [kg/m3] | speed of sound [m/s]
298.15 K | 835.67 ± 0.44 | 983.1 ± 1.4
313.15 K | 818.43 ± 0.43 | –
333.15 K | – | 920.3 ± 1.4

CC(C)(C)Cl [2-chloro-2-methylpropane] + CC1CCCO1
[2]
Conditions | mass density, 298.15 K [kg/m3] | mass density, 313.15 K [kg/m3] | speed of sound, 298.15 K [m/s] | speed of sound, 313.15 K [m/s]
x2 = 0.0505 | 837.22 ± 0.44 | – | 993.8 ± 1.4 | –
x2 = 0.0517 | – | 819.88 ± 0.43 | – | 932.6 ± 1.4
x2 = 0.0895 | – | 820.9 ± 0.43 | – | 941.2 ± 1.4
x2 = 0.108 | 838.65 ± 0.44 | – | 1006.1 ± 1.4 | –
x2 = 0.195 | – | 823.23 ± 0.44 | – | 964 ± 1.4
x2 = 0.2065 | 840.58 ± 0.44 | – | 1027.5 ± 1.4 | –
x2 = 0.3015 | – | 825.36 ± 0.44 | – | 986.5 ± 1.4
x2 = 0.3136 | 842.3 ± 0.44 | – | 1050.9 ± 1.4 | –
x2 = 0.3969 | – | 827.1 ± 0.44 | – | 1006.8 ± 1.4
x2 = 0.4125 | 843.81 ± 0.44 | – | 1072.6 ± 1.4 | –
x2 = 0.4986 | – | 828.77 ± 0.44 | – | 1028.7 ± 1.4
x2 = 0.5156 | 845.26 ± 0.44 | – | 1095.2 ± 1.4 | –
x2 = 0.605 | – | 830.31 ± 0.44 | – | 1051.5 ± 1.4
x2 = 0.6124 | 846.46 ± 0.44 | – | 1116.5 ± 1.4 | –
x2 = 0.6978 | – | 831.4 ± 0.44 | – | 1071.1 ± 1.4
x2 = 0.7107 | 847.59 ± 0.44 | – | 1138.2 ± 1.4 | –
x2 = 0.7998 | – | 832.45 ± 0.44 | – | 1092 ± 1.4
x2 = 0.8031 | 848.42 ± 0.44 | – | 1158.7 ± 1.4 | –
x2 = 0.8947 | – | 833.18 ± 0.44 | – | 1111.7 ± 1.4
x2 = 0.9022 | 848.98 ± 0.44 | – | 1180.6 ± 1.4 | –
x2 = 0.9476 | 849.12 ± 0.44 | – | 1190.7 ± 1.4 | –
x2 = 0.949 | – | 833.54 ± 0.44 | – | 1123.7 ± 1.4

[3]
Conditions | excess molar enthalpy [kcal/mol]
x2 = 0.057 | -0.00335 ± 0.000239
x2 = 0.104 | -0.00717 ± 0.000239
x2 = 0.201 | -0.0146 ± 0.000239
x2 = 0.298 | -0.0198 ± 0.000478
x2 = 0.398 | -0.0241 ± 0.000478
x2 = 0.497 | -0.0261 ± 0.000478
x2 = 0.597 | -0.0253 ± 0.000478
x2 = 0.696 | -0.0227 ± 0.000478
x2 = 0.799 | -0.0184 ± 0.000478
x2 = 0.901 | -0.0105 ± 0.000239
x2 = 0.954 | -0.0055 ± 0.000239
